Some test systems named below: UO-31 renal; UACC-257 melanoma; MDA-N; SN12C renal; HCT-116 colon; HCC-2998 colon; SF-268 CNS; SK-MEL-5 melanoma; MALME-3M melanoma; SK-MEL-2 melanoma.
Common to all, as to assay: NCI tumour cell line growth inhibition, 48 h

SMILES strings stand for the structures. Where “and” joins values, the source holds several entries; their conditions need not be identical. Identical values can stand only once.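 Compound exposure: 48 hours, 5 concentrations, 96-well plates. At the GI50, growth is halved. At the TGI there is no net growth.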 Where only a bound is given, the exact number is not on record here.

As for `O=C1NCN(c2ccccc2)C12CCN(CCCN1CCN(CCOC(c3ccc(F)cc3)c3ccc(F)cc3)CC1)CC2`, the TGI with UO-31 renal came to 3.25 µM; in the assay with UACC-257 melanoma, 3.44 µM; in the assay with MDA-N it was 3.65 µM; with SN12C renal, 4.14 µM; in the assay on HCT-116 colon, 3.32 µM; in the assay with HCC-2998 colon it was 2.93 µM. Besides, the TGI in the assay on SF-268 CNS is 3.79 µM; with SK-MEL-5 melanoma it was 3.09 µM; in the assay on MALME-3M melanoma it was 2.68 µM; in the assay with SK-MEL-2 melanoma, 3.71 µM.

With `O=C1c2ccccc2NC(=S)[C@@H]2CCCN12`, the TGI with UO-31 renal, with UACC-257 melanoma, with MDA-N, in the assay with SN12C renal, in the assay with HCT-116 colon and in the assay on HCC-2998 colon was > 100 µM throughout. The TGI in the assay on SF-268 CNS, in the assay on SK-MEL-5 melanoma, in the assay on MALME-3M melanoma and with SK-MEL-2 melanoma was > 100 µM in each case.

Consider `O=C(N/N=C/c1ccc(Br)cc1)N/N=C/c1ccc(Br)cc1`, for which the TGI in the assay on UO-31 renal is 30.5 µM; in the assay with UACC-257 melanoma, 40.2 µM; with MDA-N, 37.5 µM; in the assay with SN12C renal, 17.4 µM; with HCT-116 colon, > 100 µM; with HCC-2998 colon, 91.4 µM. The TGI is 24 µM in the assay on SF-268 CNS, 31.6 µM with SK-MEL-5 melanoma, 15.6 µM in the assay with MALME-3M melanoma and > 100 µM with SK-MEL-2 melanoma.

For the molecule `COc1c(O)c2c(=O)cc(OC)c3c4c(OC)cc(=O)c5c(O)c(OC)c6c(c(c1C(C(C)O)C6C(C)O)c23)c54` (stereo not drawn), the TGI with UO-31 renal is 2.3 µM; in the assay on MDA-N, 3.96 µM; with SN12C renal, 3.17 µM; with HCT-116 colon, 6.18 µM; with HCC-2998 colon it was 1.65 µM; in the assay with SF-268 CNS it was 15 µM. For the same molecule, the TGI in the assay with SK-MEL-5 melanoma worked out at 1.15 µM; with MALME-3M melanoma it was 2.75 µM; in the assay with SK-MEL-2 melanoma it was 3.73 µM.

Regarding `C=C(CN(C)C)C(=O)c1ccccc1[N+](=O)[O-]`, the TGI in the assay on UO-31 renal was 32.2 µM; in the assay on UACC-257 melanoma, 29.7 µM and 32.8 µM; in the assay with MDA-N, 27.9 µM and 25.3 µM; in the assay with SN12C renal, 32.6 µM and 24.7 µM; in the assay with HCT-116 colon, 31.6 µM and 38.3 µM; with HCC-2998 colon, > 56.5 µM and 29.2 µM. In addition, the TGI is 51.4 µM and 58.3 µM in the assay on SF-268 CNS; 33.4 µM and 39.6 µM in the assay with SK-MEL-5 melanoma; 20.2 µM and 21.1 µM in the assay with MALME-3M melanoma; 33.2 µM and 35 µM in the assay with SK-MEL-2 melanoma. In addition, the GI50 with UACC-257 melanoma was 14.9 µM; in the assay on MDA-N it was 10.6 µM; with SN12C renal, 3.74 µM; in the assay with HCT-116 colon, 7.18 µM; in the assay with HCC-2998 colon, 15.3 µM; in the assay on SF-268 CNS, 20.7 µM. The GI50 in the assay with SK-MEL-5 melanoma was 16.9 µM; in the assay on MALME-3M melanoma it was 4.74 µM; in the assay with SK-MEL-2 melanoma it was 17.4 µM.

As for `COC(=O)[C@H](Cc1ccccc1)NC(=O)CCCCCCC(=O)NO`, the TGI in the assay with UO-31 renal was > 100 µM; in the assay with UACC-257 melanoma it was 45.4 µM; in the assay with MDA-N, 56.6 µM; in the assay on SN12C renal, > 100 µM; in the assay on HCT-116 colon, 27 µM; in the assay with HCC-2998 colon it was 42.5 µM. The TGI with SF-268 CNS was 72.1 µM; in the assay with SK-MEL-5 melanoma it was 28.6 µM; with MALME-3M melanoma it was 38.6 µM; in the assay with SK-MEL-2 melanoma, 23.8 µM.

As for `CCOC(=O)C#Cc1ccccc1`, the TGI in the assay with UO-31 renal was 2.11 µM; in the assay on UACC-257 melanoma it was > 100 µM; with MDA-N, 45 µM; in the assay on SN12C renal, 80.1 µM; in the assay on HCT-116 colon, 17.7 µM; in the assay on HCC-2998 colon, 27.8 µM. Besides, the TGI in the assay with SK-MEL-5 melanoma came to 17.4 µM; in the assay with MALME-3M melanoma it was 33.2 µM; in the assay on SK-MEL-2 melanoma it was 5.86 µM.

As for `C1=C\SS/C=C\SS/1`, the TGI in the assay on UO-31 renal, in the assay with UACC-257 melanoma, in the assay on MDA-N, in the assay with SN12C renal, in the assay on HCT-116 colon and in the assay on HCC-2998 colon was > 100 µM throughout. For the same molecule, the TGI in the assay with SF-268 CNS, in the assay with SK-MEL-5 melanoma and with SK-MEL-2 melanoma was > 100 µM each time.

With `Nc1nn2c(=O)c3ccccc3nc2s1`, the TGI in the assay on UO-31 renal, in the assay with UACC-257 melanoma, with MDA-N, in the assay with SN12C renal, in the assay on HCT-116 colon and with HCC-2998 colon was > 100 µM in each case. Moreover, the TGI in the assay with SF-268 CNS, in the assay with SK-MEL-5 melanoma and in the assay with SK-MEL-2 melanoma was > 100 µM each time.

In the case of `CC(C)(C)c1cc(C(=O)/C=C/c2ccc3c(c2)OCO3)cc(C(C)(C)C)c1O`, the TGI in the assay on UO-31 renal was > 81 µM; in the assay on UACC-257 melanoma, 22.1 µM; with MDA-N, 5.53 µM; with SN12C renal it was 76.4 µM; in the assay with HCT-116 colon it was 24.5 µM; in the assay with HCC-2998 colon, 3.74 µM. The TGI was > 41.6 µM in the assay on SF-268 CNS, 16.6 µM in the assay with SK-MEL-5 melanoma, > 53.4 µM with MALME-3M melanoma and 10.4 µM in the assay with SK-MEL-2 melanoma.

Consider `O=c1cc(-c2ccccc2)oc2c(-c3cc(Cl)cc4c(=O)cc(-c5ccccc5)oc34)cc(Cl)cc12`, for which the TGI is 60.4 µM in the assay on UO-31 renal; > 100 µM with MDA-N; > 100 µM with SN12C renal; > 100 µM with HCC-2998 colon; > 100 µM with SF-268 CNS; 32.8 µM with SK-MEL-5 melanoma. Moreover, the TGI in the assay on MALME-3M melanoma was 75.8 µM; in the assay with SK-MEL-2 melanoma, > 100 µM.

On to `CC(=O)c1ccc2c(c1)CC1(C2)Cc2ccccc2C1=O` (stereo not drawn), for which the TGI in the assay on UO-31 renal was > 100 µM; with UACC-257 melanoma, 50.8 µM; in the assay with MDA-N, > 100 µM; in the assay with SN12C renal, > 100 µM; in the assay on HCT-116 colon it was > 100 µM; with HCC-2998 colon, > 100 µM. Also, the TGI in the assay on SF-268 CNS was > 100 µM; in the assay with SK-MEL-5 melanoma, 65.3 µM; in the assay on MALME-3M melanoma, > 100 µM; in the assay on SK-MEL-2 melanoma, > 100 µM.

For the molecule `[O-]/[N+](=C\c1ccccc1OC(=S)S)c1ccc(Cl)cc1`, the TGI with UO-31 renal is 76.6 µM; in the assay on UACC-257 melanoma, > 100 µM; with MDA-N, > 100 µM; with SN12C renal it was 97.8 µM; in the assay with HCT-116 colon, 72.7 µM; in the assay with HCC-2998 colon, > 100 µM. In addition, the TGI in the assay on SF-268 CNS is 77.7 µM; with SK-MEL-5 melanoma, > 100 µM; in the assay with MALME-3M melanoma it was > 100 µM; with SK-MEL-2 melanoma, > 100 µM.

(Values after PubChem BioAssay (NCI).)
